Legend:
[1] = target: Carbonic anhydrase 1 (Homo sapiens, UniProt P00915); experiment: Inhibition of human recombinant carbonic anhydrase 1 preincubated for 15 mins by stopped flow CO2 hydration method
[2] = target: Carbonic anhydrase 9 (Homo sapiens, UniProt Q16790)
[3] = target: Carbonic anhydrase 12 (Homo sapiens, UniProt O43570); experiment: Inhibition of human recombinant carbonic anhydrase 12 preincubated for 15 mins by stopped flow CO2 hydration method
Sequence of Carbonic anhydrase 12 (O43570 whole entry): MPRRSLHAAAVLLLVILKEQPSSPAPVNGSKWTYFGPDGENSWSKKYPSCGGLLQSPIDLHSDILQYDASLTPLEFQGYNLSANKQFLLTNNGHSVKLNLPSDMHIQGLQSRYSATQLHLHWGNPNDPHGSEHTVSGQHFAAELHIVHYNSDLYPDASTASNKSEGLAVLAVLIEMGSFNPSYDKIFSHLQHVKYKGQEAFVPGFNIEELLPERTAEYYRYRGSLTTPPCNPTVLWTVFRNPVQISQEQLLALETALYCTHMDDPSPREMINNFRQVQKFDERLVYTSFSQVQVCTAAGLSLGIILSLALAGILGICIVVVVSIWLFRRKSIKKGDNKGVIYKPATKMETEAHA

Sequence of Carbonic anhydrase 1 (P00915 whole entry): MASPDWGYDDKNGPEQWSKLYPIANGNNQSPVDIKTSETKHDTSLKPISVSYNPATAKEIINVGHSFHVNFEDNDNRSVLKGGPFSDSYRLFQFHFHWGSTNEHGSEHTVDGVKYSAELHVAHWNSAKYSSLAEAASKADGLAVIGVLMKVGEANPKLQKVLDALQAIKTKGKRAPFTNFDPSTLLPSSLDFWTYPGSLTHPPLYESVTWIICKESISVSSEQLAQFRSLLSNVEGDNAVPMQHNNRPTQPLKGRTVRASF

| SMILES | Ki [1] [nM] | Ki [2] [nM] | Ki [3] [nM] |
| --- | --- | --- | --- |
| Cc1ccccc1S(=O)(=O)NC(=O)Nc1ccc2c(C)cc(=O)oc2c1 | 4970 |  | 8.9 |
| Cc1cc(=O)oc2cc(NC(=O)NS(=O)(=O)c3ccccc3)ccc12 | > 10000 | 90.7 | 68.5 |
| Cc1cc(=O)oc2cc(NC(=O)NS(=O)(=O)c3ccc(Cl)cc3)ccc12 | 5730 |  |  |
| Cc1ccc(S(=O)(=O)NC(=O)Nc2ccc3c(C)cc(=O)oc3c2)cc1 | > 10000 |  | 9.4 |
| Cc1cc(=O)oc2cc(NC(=O)NS(=O)(=O)c3ccc(F)cc3)ccc12 | > 10000 | 23.1 | 7.7 |

The next molecules have a lower Ki [1] than those just listed; values first:

| Ki [1] [nM] | Ki [2] [nM] | Ki [3] [nM] | SMILES |
| --- | --- | --- | --- |
| 67.1 | 9.2 | 6 | Cc1ccc(S(=O)(=O)NC(=O)NCCc2ccc(S(N)(=O)=O)cc2)cc1 |
| 21.6 | 9.6 | 5.9 | NS(=O)(=O)c1ccc(CCNC(=O)NS(=O)(=O)c2ccccc2)cc1 |
| 82.6 | 68.4 | 6.8 | NS(=O)(=O)c1ccc(CCNC(=O)NS(=O)(=O)c2ccc(F)cc2)cc1 |
| 57.8 | 9.7 | 5.6 | NS(=O)(=O)c1ccc(CCNC(=O)NS(=O)(=O)c2ccc(Cl)cc2)cc1 |
| 2380 | 87.8 | 7.6 | Cc1cc(=O)oc2cc(NC(=O)NS(=O)(=O)c3ccccc3Cl)ccc12 |
| 64.2 |  | 6.4 | Cc1ccccc1S(=O)(=O)NC(=O)NCCc1ccc(S(N)(=O)=O)cc1 |
| 52.8 | 78.9 | 5.1 | NS(=O)(=O)c1ccc(CCNC(=O)NS(=O)(=O)c2ccccc2Cl)cc1 |
